Test results as given in patent US4352799A, “2-Phenyl-1,2-benzisoselenazol-3(2H)-one containing pharmaceutical preparations and process for the treatment of rheumatic diseases” (A. Nattermann & Cie GmbH, priority 1980, dated 1982).

Key:
[1] = Toxicity in rats, p.o.
[2] = Toxicity in mice, p.o.
[3] = test system: granuloma in the connective tissue; experiment: Granuloma test (cotton-pellet-test) according to R. MEIER; format: in vivo, rat
Description: In this test, cotton pellets impregnated with crotone oil are implanted subcutaneously into the test animals (rats) which impregnated cotton pellets cause the formation of granuloma in the connective tissue. After killing of the test animals, the granuloma are separated and recovered and are weighed as wet or dry tissue. The anti-proliferatic activity of an antiphlogistic agent is expressed in a lower granuloma weight in comparison to untreated control animals.

[4] = test system: arthritis caused by Freud adjuvans (pad volume); experiment: Adjunct-Arthritis (C. M. PEARSON); format: in vivo, rat (wistar)
Experimental: There are used 10 wistar rats each weighing 120 to 150 g. per each dose. The same number of animals is used as control group. An arthritis is caused by subplantar injection of 0.5 ml. of Freud adjuvans. The test duration is 17 days. At the beginning of the test the volume of the pads of all for legs is determined as starting value. The volume is further determined on the 8th, 14th and 17th day of the test. In the evaluation, the difference between the pad volume at the beginning and at the end of the test is determined both in the test group as well as in the control group. The test result, i.e. the inhibition of the growth of the pad volume is expressed in percent.

[5] = test system: edema in hindpads of rats; experiment: rat pad edema test (HILLEBRECHT, Carragenine); format: in vivo; settings: 3 hours
Experimental: The antiphlogistic properties are determined in the rat pad edema test according to HILLEBRECHT (J. HILLEBRECHT, Arzneim. Forsch. 1954, vol. 4, p. 607). In this test, the formation of an edema is caused in one of the hindpads of rats weighing each 200 to 250 grams, by subplantar injection of Carragenine (0.5% in 0.9% NaCl solution) in an amount of 0.1 ml. solution per each pad. After administration of the test compound in an amount which in general should not be larger than a volume of 10 ml. per kg. body weight, the volume of the pad is determined in an overflow. 3 hours after administration of the test compound the final volume is determined. The test is carried out with 10 test animals and 10 control animals of one sex per each dose and is repeated with the same number of animals of the other sex. For evaluation purposes the percent inhibition of edema formation is determined over the control group.

[6] = test system: arthritis caused by Freud adjuvans (pad volume); experiment: Adjunct-Arthritis (C. M. PEARSON); format: in vivo, rat (wistar); settings: 7th day p.i.
[7] = test system: ulcus formation of the stomach; experiment: Ulcus test; format: in vivo, rat (wistar); settings: 3.5 hours
Experimental: The determination of ulcus formation is carried out according to W. J. R. WHITTLE, Brit.J.Pharmacology 1975, vol. 55, pgs. 242 to 243; L. MARIANI, Europ. J. Toxicol. Eviron, 1975, vol. 8, pgs. 335 to 339; R. MENGUY and L. DESBAILLETS, Proc.Soc.Exp.Bio., vol. 125, p. 1108. In this test, 10 female and 10 male wistar rats are used each weighing 120 to 150 g. and which had been fed only with […] for 2 days and were kept thereafter without feeding for 16 hours. The formation of a bleeding ulcus of the stomach was provocated by oral application of the compound to be tested. 3.5 hours after administration the test animals were killed, the stomach was separated, opened along the large curvature and fixed to a polystyrol plate. There is determined the number and size of average ulcus formation both in the test group and in the control group.

[8] = 0.1 mg./kg. p.o., 14th day p.i.
[9] = 0.1 mg./kg. p.o., 17th day p.i.

## COc1ccc2c(c1)c(CC(=O)O)c(C)n2C(=O)c1ccc(Cl)cc1 [Indometacin, reference compound]
[1]; rat, in vivo, po
  LD50: 38 mg/kg
[1]; rat, in vivo, po, 38 mg/kg
  mortality: 50%
[2]; mouse, in vivo, po
  LD50: 19 mg/kg
[2]; mouse, in vivo, po, 19 mg/kg
  mortality: 50%
[3]; 1 mg./kg. p.o.
  Decrease of granuloma weight: -21%
[3]; 3.2 mg./kg. p.o.
  Decrease of granuloma weight: -7%
[3]; 5.6 mg./kg. p.o.
  Decrease of granuloma weight: -6%
[4]; [8]
  inhibitory effect (growth of pad volume): -25%
[4]; [9]
  inhibitory effect (growth of pad volume): -37%
[4]; 1 mg./kg. p.o., 14th day p.i.
  inhibitory effect (growth of pad volume): -40%
[4]; 1 mg./kg. p.o., 17th day p.i.
  inhibitory effect (growth of pad volume): -40%
[4]; 10 mg./kg. p.o., 14th day p.i.
  lethality given in place of inhibitory effect: lethal
[4]; 10 mg./kg. p.o., 17th day p.i.
  lethality given in place of inhibitory effect: lethal
[5]; 1.0 mg./kg. i.m.
  Edema inhibition, inhibitory effect: -9%
[5]; 3 mg./kg. i.m.
  Edema inhibition, inhibitory effect: -23%
[5]; 3.8 mg./kg. p.o.
  Edema inhibition, inhibitory effect: -26%
[5]; 5.6 mg./kg. p.o.
  Edema inhibition, inhibitory effect: -45%
[5]; 8.3 mg./kg. p.o.
  Edema inhibition, inhibitory effect: -57%
[5]; 10 mg./kg. i.m.
  Edema inhibition, inhibitory effect: -33%
[6]; 0.1 mg./kg. p.o.
  inhibitory effect (growth of pad volume): -32%
[6]; 1 mg./kg. p.o.
  inhibitory effect (growth of pad volume): -50%
[6]; 10 mg./kg. p.o.
  lethality given in place of inhibitory effect: lethal

## O=c1c2ccccc2[se]n1-c1ccccc1 [2-Phenyl-1.2-benzisoselenazol-3(2H)-one, 2-phenyl-1.2-benzisoselenazol-3(2H)-one]
[1]; rat, in vivo, po, 4600 mg/kg
  mortality: 0%
[1]; rats, p.o.
  dose at lethality 0%: 4,600 mg./kg.
[2]; mice, p.o.
  dose at lethality 0%: > 2,150 mg./Kg.
[2]; mouse, in vivo, po, 2150 mg/kg
  mortality: 0%
[3]; 0.1 mg./kg. p.o.
  Decrease of granuloma weight: -22%
[3]; 1 mg./kg. p.o.
  Decrease of granuloma weight: -21%
[3]; 10 mg./kg. p.o.
  Decrease of granuloma weight: -20%
[4]; [8]
  inhibitory effect (growth of pad volume): -10%
[4]; [9]
  inhibitory effect (growth of pad volume): -13%
[4]; 1 mg./kg. p.o., 14th day p.i.
  inhibitory effect (growth of pad volume): -36%
[4]; 1 mg./kg. p.o., 17th day p.i.
  inhibitory effect (growth of pad volume): -33%
[4]; 10 mg./kg. p.o., 14th day p.i.
  inhibitory effect (growth of pad volume): -22%
[4]; 10 mg./kg. p.o., 17th day p.i.
  inhibitory effect (growth of pad volume): -24%
[4]; at higher doses, p.o.
  toxicity effects: no toxicity effects occur
[5]; 0.1 mg./kg. i.m.
  Edema inhibition, inhibitory effect: -23%
[5]; 0.1 mg./kg. p.o.
  Edema inhibition, inhibitory effect: -1%
[5]; 1.0 mg./kg. i.m.
  Edema inhibition, inhibitory effect: -62%
[5]; 1.0 mg./kg. p.o.
  Edema inhibition, inhibitory effect: -57%
[5]; 10 mg./kg. i.m.
  Edema inhibition, inhibitory effect: -35%
[5]; 10 mg./kg. p.o.
  Edema inhibition, inhibitory effect: -40%
[6]; 0.1 mg./kg. p.o.
  inhibitory effect (growth of pad volume): -22%
[6]; 1 mg./kg. p.o.
  inhibitory effect (growth of pad volume): -46%
[6]; 10 mg./kg. p.o.
  inhibitory effect (growth of pad volume): -30%
[7]; 1 mg./kg. p.o.
  Ulcus formation, effectiveness: 0
[7]; 10 mg./kg. p.o.
  Ulcus formation, effectiveness: 0
[7]; 100 mg./kg. p.o.
  Ulcus formation, effectiveness: 0
